Measurements reported in patent US7094801B2, “Chalcone derivatives and their use to treat diseases” (Atherogenics, Inc., priority 2001, dated 2006).
Marks after values point to notes of the source that are not given here.

Key:
[1] = system: Balb/C mice; assay: Asthma Protocol (ovalbumin sensitized and challenged mice, bronchoaveolar lavage); assay type: in vivo, mouse; settings: sc, daily dosing at 100 mg/kg from day 0–13, lavage fluid
Description: Balb/C mice (6–8 weeks old) are sensitized to ovalbumin (ova) (8 ug ova absorbed in 3.3 mg Alum inject) on days 0 and 5. On day 12, the mice were aerosol challenged with 0.5% ovalbumin dissolved in sterile saline for 1 hr in the AM, and then again in the PM (at least 4 hr apart). On day 14, the mice were anesthetized with ketamine/xylazine/acepromazine cocktail, exsanguinated, and then euthanized. Following blood collection, bronchoaveolar lavage was performed on each animal. Total cell counts were conducted on the lavage fluid, which was subsequently diluted with cell media 1:1. Slides of the lavage fluid were made by spinning the samples with a cytospin centrifuge. Slides were airdried and stained with x. Cell differentials of the lavage fluid were completed at the conclusion of the study. All compounds except Example 2 were well tolerated with no body weight loss throughout the course of the study. Statistical analysis involved ANOVA and Tukey-Kramer post hoc tests. Compounds were administered except where noted by subcutaneous injection once daily from day 0–13. The formulations used contained various mixtures of the following excipients (pharmasolve, cremophor RH 40, tween 80, PEG 300). See Biological Table 3

[2] = system: Male Lewis rats; assay: Rheumatoid Arthritis Protocol (rat adjuvant arthritis, paw swelling); assay type: in vivo; settings: sq, bid
Description: Male Lewis rats (150–175 g) from Charles River Laboratories were anesthetized on day 0 with 3–5% isoflurane anesthesia while the tail base was shaved and adjuvant mixture was injected. Fifty μL of adjuvant (10 mg/ml M. butyricum in mineral oil) was injected subcutaneously into two sites at the tail base. Paw swelling was monitored using a plethysmometer (UGO Basile), after shaving each leg to the level of the Achilles tendon to mark the level of immersion. A baseline paw measurement for both hindpaws was taken between d2-d5 and a second measurement was taken on day 7–8. Onset of paw swelling occurred rapidly between d9–11 and daily measurements were performed every weekday between d9 and day 15. Compounds of the invention and vehicles were dosed either prophylactically (d1–14), or therapeutically (d9–14) after swelling was confirmed. Solutions were injected subcutaneously or given orally by gavage 1–2 times per day. From day 0, rats were weighed every 2–3 days and overall health was monitored. Plasma drug levels, if desired, were measured in tail-vein derived blood samples taken on day 14. On day 15, blood samples were obtained by cardiac puncture, rats were euthanized with CO2, selected organs removed and both hindpaws were amputated and placed in 10% buffered formalin for histopathological analysis. See Biological Table 2.

[3] = system: VCAM-1; assay: In Vitro VCAM-1 Assay (TNF-α stimulated HAEC or HPAEC, cell ELISA); assay type: cell-based, human; settings: Homo sapiens, 16 h, TNF-α (1 ng/ml) stimulated HAEC or HPAEC, approximately 16 hours
Method in brief: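 Primary human aortic or pulmonary endothelial cells (below passage 9) stimulated with TNF-α (1 ng/ml) plus compound (four concentrations, ≤0.25% DMSO) for about 16 h. Surface VCAM-1 detected by cell ELISA (HRP/TMB, OD 450 nm). IC50 taken as the concentration giving 50% inhibition of the TNF-α-only response.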

SMILES	% Inhibition [1]	% Inhibition ([2]; 60 mg/Kg/day, d1–14)	IC50 [3]	melting point	% Inhibition ([2]; 75 mg/kg/day, dl–14)
COc1cc(OC)c(-c2cc3ccccc3s2)cc1/C=C/C(=O)c1ccc(C(=O)O)cc1 [Example 3, 4-[3E-(5-Benzo[b]thien-2-yl-2,4-dimethoxyphenyl)-acryloyl]-benzoic acid]	79%	96%	–	–	–
COc1cc(OC)c(-c2cccs2)cc1/C=C/C(=O)c1ccc(C(=O)O)cc1 [Example 6, 4-[3E-(2,4-Dimethoxy-5-thiophen-2-yl-phenyl)-acryloyl]-benzoic acid]	81%	77%	< 1000 nM	213 to 216 °C	–
COCCOCCOc1cc(OC)c(-c2cccs2)cc1/C=C/C(=O)c1ccc(C(=O)O)cc1 [Example 29, 4-(3E-{4-Methoxy-2-[2-(2-methoxyethoxy)ethoxy]-5-thiophen-2-yl-phenyl}-acryloyl)-benzoic Acid]	24%	82%	< 1000 nM	–	–
COc1cc(OCCN2CCOCC2)c(/C=C/C(=O)c2ccc(C(=O)O)cc2)cc1-c1cccs1.Cl [Example 60, 4-{3E-[4-Methoxy-2-(2-morpholin-4-yl-ethoxy)-5-thiophen-2-yl-phenyl]-acryloyl}-benzoic acid, hydrochloride]	36%	–	< 1000 nM	255 °C (dec.)	62* %
COc1cc(OCC(CO)CO)c(/C=C/C(=O)c2ccc(S(N)(=O)=O)cc2)cc1-c1cccs1 [Example 86, 4-{3E-[2-(3-Hydroxy-2-hydroxymethyl-propoxy)-4-methoxy-5-thiophen-2-yl-phenyl]-acryloyl}-benzenesulfonamide]	48%	–	< 5000 nM	123 to 124 °C	–
